The results in this text go back to ChEMBL document CHEMBL1177767, “The discovery and initial optimisation of pyrrole-2-carboxamides as inhibitors of p38alpha MAP kinase” (Bioorg Med Chem Lett, 2010).

A word on the bioavailability: it is dose-corrected exposure relative to a reference, in per cent. A low value points to poor availability. One may read the half-life as how long it takes for the measured level to halve. Lower therefore signals fast loss.

Common to all, as to assay type: ADME, organism-based
A short description of series [1]: Oral bioavailability in CD rat at 1 mg/kg after 7 hrs by LC-MS/MS analysis. To be noted: in vivo.
A short description of series [2]: Clearance in CD rat at 1 mg/kg, iv and 1 mg/kg, po after 7 hrs by LC-MS/MS analysis. The conditions noted are these: in vivo.
Series [3] in a line: Half life in CD rat at 1 mg/kg, iv and 1 mg/kg, po after 7 hrs by LC-MS/MS analysis. To be noted: in vivo.
The nature of series [4]: Apparent volume of distribution at steady state in CD rat at 1 mg/kg, iv and 1 mg/kg, po after 7 hrs by LC-MS/MS analysis. To be noted: in vivo, read-out: Vdss.

For `Cc1ccccc1C(=O)c1c[nH]c(C(=O)NCc2ccco2)c1`, the bioavailability in series [1] is 18%. The compound also registered a clearance in series [2] of 56 mL/min/kg. Also, the half-life in series [3] was 9.6 min. In series [4], the Vd worked out at 0.931 L/kg.
